Entries after “also recorded” stand apart in the source; their conditions may differ. Read-outs that look alike come from different tables or passages of the source.
How the values were obtained:
[1] = test system: HIV-1 BaL pseudotyped virus; type: cell-based; conditions: for IC50: read-out: IC50, inhibition of HIV-1 BaL viral entry
[2] = test system: HIV-1 BaL pseudotyped virus
VSV pseudotyped virus [3] = type: cell-based, Vesicular Stomatitis Virus
VSV pseudotyped virus [4] = test system: VSV pseudotyped virus; parameters: species or system Vesicular Stomatitis Virus
[5] = test system: fully infectious HIV-1 BaL; test: Virolysis assay, p24 leakage ELISA, fully infectious virus; conditions: FIG. 5; read-out: IC50 for p24 leakage from fully infectious HIV-1 BaL
HOS.T4.R5 cells [6] = test system: HOS.T4.R5 cells
HIV-1 BaL pseudovirus [7] = conditions: 100 nM, 10 to 30 min at 37° C., compared with PBS treated virus
Procedure: The compounds were incubated with the HIV-1 BaL pseudovirus for 30 min at 37° C. before fixing the virions with 0.1% paraformaldehyde and loaded onto a holey carbon 200 mesh grid for TEM analysis. The grids were stained with 1% uranyl acetate and loaded onto a JEM 2100 microscope system (JEOL, Japan) operated at 120 kV. Energy-dispersive X-ray (EDX) spectroscopy was conducted on the sample (blue) and the empty mesh (red) in order to confirm assignment of virion particles.
Transmission electron microscopy (TEM) analysis was conducted to assess the morphology of untreated and D4- and D8-treated virions. Pseudotyped HIV-1 BaL was treated with D4 or D8 at 100 nM from 10 to 30 min at 37° C. The samples were then spun for 2 hours at 16,000 rpm in an ultracentrifuge (Eppendorf) at 4° C. The residual virions were fixed using 0.1% paraformaldehyde for 15 min at 4° C. The paraformaldehyde was filtered using a 100 kDa filter (Millipore), and the virions were resuspended in deionized water. The samples were then loaded onto a lacey carbon 200 mesh grid (Pacific Grid Tech), and the grid was then negatively stained using 2% uranyl acetate. Once the grid was dried, the samples were loaded onto a JEM 2100 microscope system (JEOL, Japan) operated at 120 kV. The virus images and the background mesh were evaluated by energy-dispersive X-ray spectroscopy (EDX) in order to confirm identification of virions. […]

HIV-1 group M clades = conditions: read-out: IC50, antiviral activity against all HIV-1 group M clades; cited from earlier work
Env / gp120 = conditions: cited from earlier work
A-MLV pseudotyped virus = type: cell-based, Amphotropic Murine Leukemia Virus
HIV-1 BaL pseudovirus [8] = conditions: D4 and D8 50 nM; competitor serial dilution from 0.5 μM
HOS.T4.R5 cells [9] = test: Cytotoxicity assay with WST-1 reagent; parameters: dose or concentration left out as unconfirmed; conditions: 24 hours post-exposure, FIG. 3

(G4S)4-MPER [linker(4)-MPER, reference compound]
virus inactivation accompanying p24 leakage [1]: not associated with equivalent virus inactivation
p24 leakage ([2]; non-His-tagged peptide, FIG. 13C): Significant p24 leakage

D4: fusion of CVN and MPER with (Gly4Ser)4-His6 linker: SEQ ID NO:1-(SEQ ID NO:6)4-SEQ ID NO:5-SEQ ID NO:11
IC50 [1]: 0.58 ± 0.069 nM
viral entry inhibition, VSV envelope pseudovirus (VSV pseudotyped virus [3]): no significant dose-dependent viral entry inhibition
IC50 ([2]; HIV-1 BaL pseudovirus, 30 min incubation, relative to 1% Triton X-100 lysed virus, FIG. 4A, read-out: IC50 for viral leakage (p24 release)): 14.2 ± 0.8 nM
p24 leakage, VSV-envelope control virus (VSV pseudotyped virus [4]): no leakage
IC50 [5]: 200 ± 22 nM
cytotoxicity (cell viability, WST-1) (HOS.T4.R5 cells [6]): No statistically significant differences
virion morphology after treatment (TEM) (HIV-1 BaL pseudovirus [7]): significant morphological differences relative to intact virions

microvirin [MVN, reference compound]
antiviral property / infectivity inhibition of MVN-based DAVEI [1]: only exhibited antiviral property
virolytic property of MVN-based DAVEI ([2]; FIG. 10C): only exhibited antiviral property
IC50 (HIV-1 group M clades): 2 to 167 nM
causes gp120 shedding? (Env / gp120): No
conformationally activates Env? (Env / gp120): No

B1: cyanovirin-N (protein)
chain: LGKFSQTCYNSAIQGSVLTSTCERTNGGYNTSSIDLNSVIENVDGSLKWQPSNFIETCRNTQLAGSSELAAECKTRAQQFVSTKINLDDHIANIDGTLKYE
modifications: cyanovirin-N fragment
IC50 [1]: 0.16 ± 0.031 nM
viral entry inhibition, VSV envelope pseudovirus (VSV pseudotyped virus [3]): no significant dose-dependent viral entry inhibition
viral entry inhibition, A-MLV envelope pseudovirus (A-MLV pseudotyped virus): no significant dose-dependent viral entry inhibition
leakage of intraviral p24 ([2]; at concentrations up to at least 10 μM, FIG. 4A): unable to induce the leakage of intraviral p24
competition of the virolytic activity of both D4 and D8 (HIV-1 BaL pseudovirus [8]): observed in a dose-dependent fashion
causes gp120 shedding? (Env / gp120): No
conformationally activates Env? (Env / gp120): No
cytotoxicity (cell viability, WST-1) (HOS.T4.R5 cells [9]): no significant cytotoxicity; also recorded: No statistically significant differences
